{"source": "BindingDB's records for doi:10.1021/jm00040a008", "about": "(Harvard Medical School, 1994)", "test": "Tested in vitro for inhibitory concentration against CCRF-CEM human Leukemic lymphoblast by using DHFR as primary target"}
{"smiles": "CCC(Cc1cnc2nc(N)nc(N)c2n1)c1ccc(C(=O)N[C@@H](CCC(=O)O)C(=O)O)cc1", "note": "(stereo partly specified) [Edatrexate]", "values": [{"measurement": "IC50", "value": 2.6, "unit": "nM"}]}
